Molecules are shown by their SMILES.

The target of assay [1] is High affinity nerve growth factor receptor (Homo sapiens, UniProt P04629). The assay can be described thus: Selectivity interaction (Millipore kinase profiler) EUB0000124b NTRK1. The note with it: at 10 µM.
In assay [2] the test system is Tyrosine-protein kinase ABL1 (Homo sapiens), P00519 [H396P]. The assay can be described thus: (§1) Selectivity interaction (KinomeScan (DiscoverX)) EUB0001049a ABL1. The note with it: at 1 µM.
Assay [3] relates to Tyrosine-protein kinase ABL1 (Homo sapiens), P00519 [F317L]. The description is as §1. The note with it: at 1 µM.
Assay [4] deals with Tyrosine-protein kinase ABL1 (Homo sapiens), P00519 [Y253F]. The assay is described as §1. The note with it: at 1 µM.
Assay [5] has as its system Tyrosine-protein kinase ABL1 (Homo sapiens), P00519 [M351T]. The description is as §1. The settings on record: at 1 µM.
For assay [6], the target named is Tyrosine-protein kinase ABL1 (Homo sapiens, UniProt P00519). The description is as §1. The settings on record: at 1 µM.
Assay [7] concerns Tyrosine-protein kinase ABL1 (Homo sapiens), P00519 [F317I]. Described as §1. The settings on record: at 1 µM.
The subject of assay [8] is Tyrosine-protein kinase ABL1 (Homo sapiens), P00519 [Q252H]. Described as §1. The settings on record: at 1 µM.
For assay [9], the system named is Tyrosine-protein kinase ABL1 (Homo sapiens), P00519 [E255K]. The assay is described as §1. The note with it: at 1 µM.
The test system of assay [10] is Tyrosine-protein kinase ABL1 (Homo sapiens), P00519 [T315I]. The description is as §1. The note with it: at 1 µM.
Assay [11] deals with STE20-like serine/threonine-protein kinase (Homo sapiens, UniProt Q9H2G2). Kind of assay: Selectivity interaction (KinomeScan (DiscoverX)) EUB0000655a SLK. The note with it: at 10 µM.
Sequence of STE20-like serine/threonine-protein kinase (Q9H2G2 whole entry, looked up, canonical isoform): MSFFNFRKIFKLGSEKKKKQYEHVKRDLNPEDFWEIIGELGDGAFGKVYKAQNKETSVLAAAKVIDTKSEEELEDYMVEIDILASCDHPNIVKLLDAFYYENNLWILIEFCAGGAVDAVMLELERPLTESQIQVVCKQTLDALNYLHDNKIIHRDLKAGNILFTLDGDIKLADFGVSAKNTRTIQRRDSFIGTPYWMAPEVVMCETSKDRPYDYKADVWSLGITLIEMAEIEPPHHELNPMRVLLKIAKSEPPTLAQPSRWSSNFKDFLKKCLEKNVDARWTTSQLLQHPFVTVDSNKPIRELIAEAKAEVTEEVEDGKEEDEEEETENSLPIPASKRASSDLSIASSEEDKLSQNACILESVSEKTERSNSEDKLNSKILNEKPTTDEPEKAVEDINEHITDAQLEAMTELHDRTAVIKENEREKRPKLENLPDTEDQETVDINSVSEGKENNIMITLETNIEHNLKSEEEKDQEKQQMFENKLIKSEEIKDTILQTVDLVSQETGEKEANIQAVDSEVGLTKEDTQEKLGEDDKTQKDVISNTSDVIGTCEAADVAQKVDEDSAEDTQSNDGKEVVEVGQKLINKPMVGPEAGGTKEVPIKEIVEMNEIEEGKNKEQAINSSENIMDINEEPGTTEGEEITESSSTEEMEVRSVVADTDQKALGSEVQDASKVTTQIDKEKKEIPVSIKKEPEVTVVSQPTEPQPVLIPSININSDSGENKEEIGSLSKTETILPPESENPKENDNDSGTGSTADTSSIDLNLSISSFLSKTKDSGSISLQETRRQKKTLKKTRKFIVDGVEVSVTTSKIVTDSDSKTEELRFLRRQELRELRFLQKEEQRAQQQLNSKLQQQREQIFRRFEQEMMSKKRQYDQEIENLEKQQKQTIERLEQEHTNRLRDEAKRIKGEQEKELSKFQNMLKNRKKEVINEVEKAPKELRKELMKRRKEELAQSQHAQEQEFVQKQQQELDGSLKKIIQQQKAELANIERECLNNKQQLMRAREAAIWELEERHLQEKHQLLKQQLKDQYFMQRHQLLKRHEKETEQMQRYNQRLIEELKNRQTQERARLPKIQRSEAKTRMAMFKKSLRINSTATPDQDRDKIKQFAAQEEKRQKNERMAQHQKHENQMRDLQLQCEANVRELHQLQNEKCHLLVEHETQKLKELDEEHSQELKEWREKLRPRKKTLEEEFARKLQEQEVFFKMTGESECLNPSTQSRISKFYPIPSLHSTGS
Assay [12] deals with Phosphatidylinositol 4,5-bisphosphate 3-kinase catalytic subunit alpha isoform (Homo sapiens), P42336 [H1047Y]. Kind of assay: (§2) Selectivity interaction (KinomeScan (DiscoverX)) EUB0000666a PIK3CA. The settings on record: at 10 µM.
Sequence of Phosphatidylinositol 4,5-bisphosphate 3-kinase catalytic subunit alpha isoform (Homo sapiens), P42336 [H1047Y] (P42336 whole entry H1047Y, canonical isoform): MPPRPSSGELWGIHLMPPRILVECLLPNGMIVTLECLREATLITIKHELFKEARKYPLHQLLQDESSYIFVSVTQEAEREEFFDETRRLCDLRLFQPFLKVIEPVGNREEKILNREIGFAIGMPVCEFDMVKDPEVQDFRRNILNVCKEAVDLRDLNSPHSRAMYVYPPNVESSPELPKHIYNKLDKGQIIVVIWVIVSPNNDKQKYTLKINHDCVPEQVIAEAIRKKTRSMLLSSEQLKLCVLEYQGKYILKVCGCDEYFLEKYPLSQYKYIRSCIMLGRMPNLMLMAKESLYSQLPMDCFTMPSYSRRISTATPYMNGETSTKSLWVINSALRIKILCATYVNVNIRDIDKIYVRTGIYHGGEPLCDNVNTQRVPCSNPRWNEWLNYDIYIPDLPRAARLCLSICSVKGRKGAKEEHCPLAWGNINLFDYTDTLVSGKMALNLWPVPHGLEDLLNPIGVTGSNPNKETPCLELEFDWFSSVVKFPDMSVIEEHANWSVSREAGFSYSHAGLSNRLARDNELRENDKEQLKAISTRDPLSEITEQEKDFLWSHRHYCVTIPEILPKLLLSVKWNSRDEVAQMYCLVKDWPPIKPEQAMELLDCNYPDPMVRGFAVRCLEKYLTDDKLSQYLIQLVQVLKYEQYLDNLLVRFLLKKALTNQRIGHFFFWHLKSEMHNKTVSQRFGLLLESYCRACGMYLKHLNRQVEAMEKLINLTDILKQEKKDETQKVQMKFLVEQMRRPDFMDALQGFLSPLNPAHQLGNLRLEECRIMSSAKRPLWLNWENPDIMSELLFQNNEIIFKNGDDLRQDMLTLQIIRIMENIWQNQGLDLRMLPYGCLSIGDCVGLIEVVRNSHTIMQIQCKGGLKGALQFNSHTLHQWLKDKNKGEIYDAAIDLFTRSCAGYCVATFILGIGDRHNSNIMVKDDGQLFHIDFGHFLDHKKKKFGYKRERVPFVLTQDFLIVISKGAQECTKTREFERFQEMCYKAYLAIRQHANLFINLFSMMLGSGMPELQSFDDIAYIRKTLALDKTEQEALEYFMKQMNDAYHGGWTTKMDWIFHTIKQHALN
Assay [13] deals with Phosphatidylinositol 4,5-bisphosphate 3-kinase catalytic subunit alpha isoform (Homo sapiens), P42336 [E545A]. The description is as §2. The note with it: at 10 µM.
Sequence of Phosphatidylinositol 4,5-bisphosphate 3-kinase catalytic subunit alpha isoform (Homo sapiens), P42336 [E545A] (P42336 whole entry E545A, canonical isoform): as the sequence (P42336 whole entry H1047Y, canonical isoform) above, with E545A, Y1047H counted along it
Assay [14] concerns Phosphatidylinositol 4,5-bisphosphate 3-kinase catalytic subunit alpha isoform (Homo sapiens), P42336 [E542K]. The assay is described as §2. The note with it: at 10 µM.
Sequence of Phosphatidylinositol 4,5-bisphosphate 3-kinase catalytic subunit alpha isoform (Homo sapiens), P42336 [E542K] (P42336 whole entry E542K, canonical isoform): as the sequence (P42336 whole entry H1047Y, canonical isoform) above, with E542K, Y1047H counted along it
The test system of assay [15] is Fibroblast growth factor receptor 3 (Homo sapiens), P22607 [K650M]. The assay can be described thus: (§3) Selectivity interaction (LanthaScreen Eu Kinase Binding Assay) EUB0001632a FGFR3. The note with it: at 10 µM. Background: In TR-FRET formats the signal depends on donor and acceptor labels being close together.
The test system of assay [16] is Fibroblast growth factor receptor 3 (Homo sapiens), P22607 [G697C]. Described as §3. The note with it: at 10 µM.
The target in assay [17] is T1, Eukaryotic elongation factor 2 kinase (Homo sapiens) (UniProt O00418).
T1 sequence (whole entry): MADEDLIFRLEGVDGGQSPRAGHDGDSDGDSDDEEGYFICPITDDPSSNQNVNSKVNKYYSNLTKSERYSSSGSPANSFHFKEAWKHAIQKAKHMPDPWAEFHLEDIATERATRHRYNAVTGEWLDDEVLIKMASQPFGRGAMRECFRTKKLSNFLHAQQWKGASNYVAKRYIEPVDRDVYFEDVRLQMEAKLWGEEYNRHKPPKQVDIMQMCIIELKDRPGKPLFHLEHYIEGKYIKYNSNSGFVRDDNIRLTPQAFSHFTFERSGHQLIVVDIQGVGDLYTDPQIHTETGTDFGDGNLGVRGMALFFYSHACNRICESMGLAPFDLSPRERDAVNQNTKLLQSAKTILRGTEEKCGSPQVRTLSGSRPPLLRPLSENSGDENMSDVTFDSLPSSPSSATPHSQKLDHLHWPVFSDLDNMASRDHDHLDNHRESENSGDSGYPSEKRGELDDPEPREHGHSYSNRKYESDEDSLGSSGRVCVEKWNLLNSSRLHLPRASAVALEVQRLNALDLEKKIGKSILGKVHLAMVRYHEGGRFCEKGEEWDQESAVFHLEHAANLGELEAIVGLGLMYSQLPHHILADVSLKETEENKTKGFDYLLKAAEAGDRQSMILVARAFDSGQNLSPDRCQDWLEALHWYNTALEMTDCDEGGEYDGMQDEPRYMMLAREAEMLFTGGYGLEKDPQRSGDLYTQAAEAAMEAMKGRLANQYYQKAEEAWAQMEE
Kind of assay: Selectivity interaction (Kinase panel (Z-LYTE Assay)) EUB0001632a EEF2K. The note with it: at 10 µM.

The target in assay [18] is Cyclin-dependent kinase 17 (Homo sapiens) (UniProt Q00537). The assay can be described thus: Selectivity interaction (ActivX KiNativ screen (kinase selectivity in THP-1 cell lysates)) EUB0000639a CDK17. Format: subcellular. The settings on record: lysate, at 1 µM.
Sequence of Cyclin-dependent kinase 17 (Homo sapiens) (Q00537 whole entry, looked up): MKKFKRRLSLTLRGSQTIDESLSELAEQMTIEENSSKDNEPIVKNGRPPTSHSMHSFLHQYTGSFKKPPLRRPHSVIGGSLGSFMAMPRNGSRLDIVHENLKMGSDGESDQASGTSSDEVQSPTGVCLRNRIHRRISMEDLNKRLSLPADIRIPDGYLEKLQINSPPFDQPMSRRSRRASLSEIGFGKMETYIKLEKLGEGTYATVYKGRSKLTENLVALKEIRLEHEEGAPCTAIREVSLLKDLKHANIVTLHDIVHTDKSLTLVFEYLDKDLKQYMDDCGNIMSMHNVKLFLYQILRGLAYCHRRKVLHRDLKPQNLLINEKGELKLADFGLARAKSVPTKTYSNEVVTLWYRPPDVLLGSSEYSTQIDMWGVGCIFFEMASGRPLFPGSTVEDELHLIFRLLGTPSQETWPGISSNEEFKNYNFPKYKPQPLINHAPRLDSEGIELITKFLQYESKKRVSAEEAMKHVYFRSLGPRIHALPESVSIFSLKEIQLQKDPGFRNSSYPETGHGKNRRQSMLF
For assay [19], the target named is T2, Mitogen-activated protein kinase kinase kinase kinase 2 (Homo sapiens) (UniProt Q12851).
T2 sequence (whole entry): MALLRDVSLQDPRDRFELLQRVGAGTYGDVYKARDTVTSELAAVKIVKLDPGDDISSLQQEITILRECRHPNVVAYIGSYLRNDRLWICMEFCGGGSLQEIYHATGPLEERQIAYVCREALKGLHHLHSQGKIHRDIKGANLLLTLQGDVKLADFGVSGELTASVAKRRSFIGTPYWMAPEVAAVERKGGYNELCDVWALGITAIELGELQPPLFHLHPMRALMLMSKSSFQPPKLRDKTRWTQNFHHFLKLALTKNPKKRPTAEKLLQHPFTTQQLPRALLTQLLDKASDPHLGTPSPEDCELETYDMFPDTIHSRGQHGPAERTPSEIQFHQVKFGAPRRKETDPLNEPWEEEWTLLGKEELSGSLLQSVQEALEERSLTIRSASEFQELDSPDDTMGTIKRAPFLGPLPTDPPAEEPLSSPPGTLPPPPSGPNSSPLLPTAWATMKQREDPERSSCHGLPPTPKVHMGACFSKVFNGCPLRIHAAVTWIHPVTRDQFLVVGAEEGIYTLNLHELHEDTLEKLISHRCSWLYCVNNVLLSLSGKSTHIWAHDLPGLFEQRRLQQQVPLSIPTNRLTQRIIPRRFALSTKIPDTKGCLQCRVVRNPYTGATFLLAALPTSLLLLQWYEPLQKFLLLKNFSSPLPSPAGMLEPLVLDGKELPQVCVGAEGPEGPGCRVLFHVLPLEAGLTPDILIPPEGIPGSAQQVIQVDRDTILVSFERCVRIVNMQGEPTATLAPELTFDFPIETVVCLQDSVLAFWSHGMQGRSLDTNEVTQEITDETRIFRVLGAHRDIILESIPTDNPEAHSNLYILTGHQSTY
Kind of assay: Selectivity interaction (ActivX KiNativ screen (kinase selectivity in THP-1 cell lysates)) EUB0000639a MAP4K2. Format: subcellular. The settings on record: lysate, at 0.01 µM.

Assay [20] has as its target Phosphatidylinositol 4,5-bisphosphate 3-kinase catalytic subunit gamma isoform (Homo sapiens) (UniProt P48736). Kind of assay: Selectivity interaction (Kinase panel (Invitrogen)) EUB0000639a PIK3CG. The note with it: at 200 nM.
The target in assay [21] is Calcium/calmodulin-dependent protein kinase type II subunit beta (Homo sapiens) (UniProt Q13554). Kind of assay: Selectivity interaction (KinomeScan (DiscoverX)) EUB0001619a CAMK2B. The settings on record: at 1 µM.
Assay [22] deals with Mitogen-activated protein kinase kinase kinase kinase 1 (Homo sapiens) (UniProt Q92918). The assay can be described thus: Selectivity interaction (Kinase panel (KiNativ target engagement assay in Jurkat cells)) EUB0001635a MAP4K1. It is filed as cell-based. The settings on record: Selectivity number of off-targets 0.0, Selectivity number of targets 233.0, Source Knowledge https://www.sciencedirect.com/science/article/pii/S2451945619300674?via%3Dihub, at 1 µM.
Sequence of Mitogen-activated protein kinase kinase kinase kinase 1 (Homo sapiens) (Q92918 whole entry, looked up): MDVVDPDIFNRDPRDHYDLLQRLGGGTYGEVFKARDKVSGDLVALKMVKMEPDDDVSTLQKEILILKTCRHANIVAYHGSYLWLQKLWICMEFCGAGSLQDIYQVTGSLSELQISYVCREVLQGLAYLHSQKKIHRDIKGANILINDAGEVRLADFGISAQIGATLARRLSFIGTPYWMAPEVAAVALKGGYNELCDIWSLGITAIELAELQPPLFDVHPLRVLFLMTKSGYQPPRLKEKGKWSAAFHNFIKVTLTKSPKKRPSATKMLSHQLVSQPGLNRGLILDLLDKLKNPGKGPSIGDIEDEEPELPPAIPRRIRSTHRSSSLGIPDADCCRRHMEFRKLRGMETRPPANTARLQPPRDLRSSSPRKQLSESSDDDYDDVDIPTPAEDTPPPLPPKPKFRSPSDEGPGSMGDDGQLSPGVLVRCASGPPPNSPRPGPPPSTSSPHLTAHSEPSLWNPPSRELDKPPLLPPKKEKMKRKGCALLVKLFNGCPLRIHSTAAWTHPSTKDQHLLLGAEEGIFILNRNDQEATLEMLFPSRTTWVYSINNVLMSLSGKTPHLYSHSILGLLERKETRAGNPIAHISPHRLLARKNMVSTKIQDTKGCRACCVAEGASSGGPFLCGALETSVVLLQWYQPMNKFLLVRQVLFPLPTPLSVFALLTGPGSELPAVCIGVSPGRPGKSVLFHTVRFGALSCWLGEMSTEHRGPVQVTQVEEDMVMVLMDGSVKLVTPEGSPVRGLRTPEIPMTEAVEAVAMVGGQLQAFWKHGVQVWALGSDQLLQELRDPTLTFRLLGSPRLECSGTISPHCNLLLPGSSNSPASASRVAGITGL

Sequence of High affinity nerve growth factor receptor (P04629 33-796 limits assumed): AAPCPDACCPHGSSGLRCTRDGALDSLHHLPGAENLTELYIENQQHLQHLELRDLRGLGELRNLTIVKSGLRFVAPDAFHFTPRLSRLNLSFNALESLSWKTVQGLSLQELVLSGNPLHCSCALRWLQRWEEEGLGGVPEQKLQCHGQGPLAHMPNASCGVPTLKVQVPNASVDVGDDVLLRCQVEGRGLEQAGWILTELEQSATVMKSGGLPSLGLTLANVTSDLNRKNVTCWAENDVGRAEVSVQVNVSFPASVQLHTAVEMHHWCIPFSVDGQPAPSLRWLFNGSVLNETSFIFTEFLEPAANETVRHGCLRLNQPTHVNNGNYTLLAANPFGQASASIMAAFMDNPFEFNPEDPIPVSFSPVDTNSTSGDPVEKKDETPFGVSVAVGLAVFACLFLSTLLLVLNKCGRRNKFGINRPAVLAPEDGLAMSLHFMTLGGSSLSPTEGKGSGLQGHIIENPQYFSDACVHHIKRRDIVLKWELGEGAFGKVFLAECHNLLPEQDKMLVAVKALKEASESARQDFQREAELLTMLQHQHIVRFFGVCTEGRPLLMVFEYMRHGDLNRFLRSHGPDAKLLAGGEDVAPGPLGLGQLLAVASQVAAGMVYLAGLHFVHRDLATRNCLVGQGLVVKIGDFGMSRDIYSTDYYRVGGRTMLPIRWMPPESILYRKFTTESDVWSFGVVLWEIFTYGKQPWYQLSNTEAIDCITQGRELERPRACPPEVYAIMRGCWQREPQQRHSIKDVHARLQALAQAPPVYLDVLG

`CC(=O)Nc1cccc(-n2c(=O)n(C3CC3)c(=O)c3c(Nc4ccc(I)cc4F)n(C)c(=O)c(C)c32)c1` gave a % of control in assay [1] of 59%.

With `COc1cc(Nc2nc(C)cc(-c3cnn4nc(OC)ccc34)n2)cc(C(F)(F)F)c1`, the % of control is 64% in [2]; 92% in assay [3]; 70% in assay [4]; 99% in assay [5]; 63% in [6]; 97% in assay [7]. Also, the values for the % of control in assay [8], in assay [9] and in assay [10] were 68%, 86% and 75%, respectively.

For the compound `CN(C)CCOc1ccc(-c2nc(-c3ccncc3)c(-c3ccc4c(c3)CC/C4=N\O)[nH]2)cc1`, the % of control in assay [11] was found to be 1.3%.

On to `O=C(NOC[C@H](O)CO)c1ccc(F)c(F)c1Nc1ccc(I)cc1F`, for which the % of control in assay [12] was 57%; in [13] it was 45%; in assay [14] it was 57%.

Regarding `Cn1cc(-n2cnc3c(NCc4nc5cc(Cl)c(Cl)cc5[nH]4)nc(N4CCOCC4)nc32)cn1`, the % of inhibition in assay [15] is -215%; in [16], -105%. Besides, the % of control in assay [17] was 1.73%.

In the case of `CC[C@@H]1[C@H](F)C(=O)N[C@@H]1COc1nccc2cc(C(N)=O)c(OC)cc12` [ZIMLOVISERTIB], the % of inhibition in [18] is 3.9%; in assay [19], 13.3%; in assay [20], 6.49%.

Regarding `N#Cc1cccc(-c2c[nH]c3ncnc(N4CCOCC4)c23)c1`, the % of control in assay [21] came out at 83%.

On to `C=CC(=O)Nc1ccc(C(=O)Nc2[nH]nc3c2CN(C(=O)N[C@H](CN(C)C)c2ccccc2)C3(C)C)cc1`, for which the % of engagement in [22] is 4.1%.

These data come from ChEMBL document CHEMBL5465560, “Selectivity Literature for EUbOPEN Chemogenomic Library” (2024).
